Assay results from ChEMBL document CHEMBL1201862, “PubChem BioAssay data set” (2004).
Blank lines part the entries; values can stand above or below the compound they belong to. Activity calls are given as the source filed them.

Columns and labels:
[1] = target: T1, Heat shock factor protein 1 (Mus musculus, UniProt P38532); assay: inhibition of MG132-induced HSE-luciferase signal, confirmation, cell-based, NIH3T3, luminescence, dose retest (AID 2382); type: functional;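 also: NIH3T3 fibroblasts with HSF1-driven luciferase reporter stressed by proteasome inhibitor MG132; luminescence from HSF1-driven luciferase expression after 8 hours of MG132 stress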
T1 sequence (P38532 whole entry): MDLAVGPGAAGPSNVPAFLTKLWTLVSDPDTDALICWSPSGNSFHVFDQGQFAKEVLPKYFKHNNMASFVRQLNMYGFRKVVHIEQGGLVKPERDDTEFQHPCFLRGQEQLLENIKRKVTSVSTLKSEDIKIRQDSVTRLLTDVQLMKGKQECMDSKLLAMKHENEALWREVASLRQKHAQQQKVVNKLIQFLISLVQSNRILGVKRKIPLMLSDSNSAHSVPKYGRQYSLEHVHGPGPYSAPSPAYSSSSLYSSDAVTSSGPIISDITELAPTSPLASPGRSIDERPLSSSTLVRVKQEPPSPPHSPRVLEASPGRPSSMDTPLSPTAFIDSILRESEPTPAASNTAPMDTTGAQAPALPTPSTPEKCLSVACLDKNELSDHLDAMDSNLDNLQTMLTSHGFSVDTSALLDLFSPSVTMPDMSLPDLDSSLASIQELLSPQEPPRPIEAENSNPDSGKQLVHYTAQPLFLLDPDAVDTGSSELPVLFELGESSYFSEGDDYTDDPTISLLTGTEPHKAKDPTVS

[2] = target: T2, Corticotropin-releasing factor receptor 2/Corticotropin-releasing factor-binding protein (Homo sapiens, UniProt P24387+Q13324); assay: Dose Response confirmation of uHTS hits for small molecule antagonists of the CRF-binding protein and CRF-R2 receptor complex.; type: functional; details: read-out: IC50_Mean
T2 sequence (Q13324 whole entry): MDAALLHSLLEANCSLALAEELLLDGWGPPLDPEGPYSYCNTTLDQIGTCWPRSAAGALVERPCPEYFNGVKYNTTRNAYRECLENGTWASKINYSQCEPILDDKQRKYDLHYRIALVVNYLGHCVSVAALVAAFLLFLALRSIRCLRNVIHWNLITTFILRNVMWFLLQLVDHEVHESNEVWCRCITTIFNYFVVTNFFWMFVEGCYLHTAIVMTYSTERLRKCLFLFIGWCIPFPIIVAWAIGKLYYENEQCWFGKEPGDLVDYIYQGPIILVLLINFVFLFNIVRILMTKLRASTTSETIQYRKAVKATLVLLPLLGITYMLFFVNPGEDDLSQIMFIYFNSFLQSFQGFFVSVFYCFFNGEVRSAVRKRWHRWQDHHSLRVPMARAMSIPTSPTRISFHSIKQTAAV
T2 sequence (P24387 whole entry): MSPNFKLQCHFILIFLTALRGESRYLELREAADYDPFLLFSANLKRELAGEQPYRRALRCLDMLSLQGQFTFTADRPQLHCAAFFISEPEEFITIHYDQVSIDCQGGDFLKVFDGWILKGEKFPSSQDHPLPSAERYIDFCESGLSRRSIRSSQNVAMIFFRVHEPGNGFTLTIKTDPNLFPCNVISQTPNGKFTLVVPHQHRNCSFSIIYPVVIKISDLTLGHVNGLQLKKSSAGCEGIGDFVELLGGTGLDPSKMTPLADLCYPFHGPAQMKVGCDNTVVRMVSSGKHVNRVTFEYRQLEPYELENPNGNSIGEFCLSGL

[3] = target: T2, Corticotropin-releasing factor receptor 2/Corticotropin-releasing factor-binding protein; assay: activators of CRF receptor 2 with binding protein – uHTS hits, confirmation (AID 602473); type: functional; details: read-out: EC50_Mean
Cytochrome P450 2C19 = Cytochrome P450 2C19 (Homo sapiens, UniProt P33261); assay: Cytochrome panel assay with activity outcomes. Panel member name: p450-cyp2c19 Compounds with AC50 equal or less than 10 uM are considered active; type: functional; details: read-out: AC50
Cytochrome P450 1A2 = target: T3, Cytochrome P450 1A2 (Homo sapiens, UniProt P05177);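 also: PubChem cytochrome P450 panel assay, CYP1A2 panel member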
T3 sequence (P05177 whole entry): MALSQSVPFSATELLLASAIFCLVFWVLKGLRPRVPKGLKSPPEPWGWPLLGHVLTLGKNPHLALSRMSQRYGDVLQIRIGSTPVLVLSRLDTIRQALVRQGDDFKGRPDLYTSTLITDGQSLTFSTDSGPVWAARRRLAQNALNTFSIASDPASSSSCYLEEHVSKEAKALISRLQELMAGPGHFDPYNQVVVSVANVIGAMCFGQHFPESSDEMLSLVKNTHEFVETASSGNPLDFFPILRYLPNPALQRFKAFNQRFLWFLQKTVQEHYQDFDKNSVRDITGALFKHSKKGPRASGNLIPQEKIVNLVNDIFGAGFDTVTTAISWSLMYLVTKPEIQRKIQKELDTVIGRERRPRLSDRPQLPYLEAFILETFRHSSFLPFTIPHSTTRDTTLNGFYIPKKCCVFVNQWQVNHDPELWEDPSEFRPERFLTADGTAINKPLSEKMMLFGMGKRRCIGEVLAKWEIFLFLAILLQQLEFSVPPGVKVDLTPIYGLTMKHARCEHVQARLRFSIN

[4] = HEp-2 cell cytotoxicity, dose response, cytotoxicity control for RSV inhibitor project, HTS (AID 2410); type: functional; details: human respiratory syncytial virus
Cytochrome P450 3A4 = Cytochrome P450 3A4 (Homo sapiens, UniProt P08684);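 also: CYP3A4 tested as one member of a cytochrome P450 panel screen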
Cytochrome P450 2C9 = Cytochrome P450 2C9 (Homo sapiens, UniProt P11712)
Paired box protein Pax-8 = Paired box protein Pax-8 (Homo sapiens, UniProt Q06710); assay: inhibitors of PAX8-driven TPO luciferase reporter, dose response, RMG-I cells, cherry-pick (AID 687027); type: functional, cell-based;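 also: luciferase reporter driven by Pax8 target thyroperoxidase promoter measured by SteadyGlo luminescence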
Chain of Paired box protein Pax-8 (Q06710 whole entry): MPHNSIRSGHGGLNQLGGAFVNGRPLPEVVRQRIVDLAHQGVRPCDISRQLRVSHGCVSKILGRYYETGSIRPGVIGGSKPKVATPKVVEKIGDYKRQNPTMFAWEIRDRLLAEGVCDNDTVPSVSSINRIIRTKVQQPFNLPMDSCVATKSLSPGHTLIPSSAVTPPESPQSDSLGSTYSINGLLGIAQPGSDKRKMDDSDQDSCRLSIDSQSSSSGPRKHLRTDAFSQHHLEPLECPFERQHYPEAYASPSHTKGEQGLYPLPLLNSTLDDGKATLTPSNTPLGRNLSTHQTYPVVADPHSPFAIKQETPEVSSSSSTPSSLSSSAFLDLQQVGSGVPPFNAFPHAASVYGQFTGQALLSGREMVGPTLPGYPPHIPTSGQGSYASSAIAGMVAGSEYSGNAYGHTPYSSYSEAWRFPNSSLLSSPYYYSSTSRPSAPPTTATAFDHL

Chain of Cytochrome P450 2C19 (P33261 whole entry): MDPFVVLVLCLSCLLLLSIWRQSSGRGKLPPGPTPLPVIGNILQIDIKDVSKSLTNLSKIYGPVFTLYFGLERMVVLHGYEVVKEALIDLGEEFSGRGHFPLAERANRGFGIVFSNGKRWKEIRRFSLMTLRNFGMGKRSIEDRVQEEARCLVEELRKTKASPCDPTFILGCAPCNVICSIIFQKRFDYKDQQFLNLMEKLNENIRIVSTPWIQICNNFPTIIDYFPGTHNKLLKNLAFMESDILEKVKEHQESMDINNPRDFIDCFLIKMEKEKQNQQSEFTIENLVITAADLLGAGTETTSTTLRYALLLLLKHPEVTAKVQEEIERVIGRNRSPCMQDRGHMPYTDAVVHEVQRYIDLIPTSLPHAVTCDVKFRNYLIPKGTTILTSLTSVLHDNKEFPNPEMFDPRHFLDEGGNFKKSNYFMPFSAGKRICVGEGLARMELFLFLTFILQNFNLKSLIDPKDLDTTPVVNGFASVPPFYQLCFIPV
Chain of Cytochrome P450 2C9 (P11712 whole entry): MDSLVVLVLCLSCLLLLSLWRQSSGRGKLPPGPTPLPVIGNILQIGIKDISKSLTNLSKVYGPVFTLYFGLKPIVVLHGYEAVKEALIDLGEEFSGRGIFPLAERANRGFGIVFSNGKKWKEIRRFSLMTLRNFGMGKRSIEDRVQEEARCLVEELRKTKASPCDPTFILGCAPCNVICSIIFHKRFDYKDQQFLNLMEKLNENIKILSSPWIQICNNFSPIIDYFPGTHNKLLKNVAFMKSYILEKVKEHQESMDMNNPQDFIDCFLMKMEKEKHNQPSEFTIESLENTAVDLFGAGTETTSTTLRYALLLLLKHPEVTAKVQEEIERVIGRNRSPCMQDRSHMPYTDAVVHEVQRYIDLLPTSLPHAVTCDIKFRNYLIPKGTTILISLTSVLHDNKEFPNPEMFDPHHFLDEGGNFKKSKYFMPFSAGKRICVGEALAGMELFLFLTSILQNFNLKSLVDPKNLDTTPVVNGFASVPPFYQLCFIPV
Chain of Cytochrome P450 3A4 (P08684 whole entry): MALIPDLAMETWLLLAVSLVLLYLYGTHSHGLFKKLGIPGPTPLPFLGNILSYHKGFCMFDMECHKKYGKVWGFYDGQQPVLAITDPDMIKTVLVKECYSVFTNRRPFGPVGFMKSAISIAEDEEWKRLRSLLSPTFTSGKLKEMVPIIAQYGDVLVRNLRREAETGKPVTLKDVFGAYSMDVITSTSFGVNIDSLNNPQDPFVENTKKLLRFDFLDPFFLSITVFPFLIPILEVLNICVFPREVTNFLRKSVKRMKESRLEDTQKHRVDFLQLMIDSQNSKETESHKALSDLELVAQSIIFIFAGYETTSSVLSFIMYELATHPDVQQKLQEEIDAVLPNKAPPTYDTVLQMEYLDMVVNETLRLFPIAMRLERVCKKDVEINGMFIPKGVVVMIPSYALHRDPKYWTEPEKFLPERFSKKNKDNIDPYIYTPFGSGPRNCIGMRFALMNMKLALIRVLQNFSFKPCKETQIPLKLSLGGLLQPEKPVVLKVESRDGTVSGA

SMILES: Cc1ccc(NC(=O)C2CCCN2C(=O)c2cccs2)cc1C (stereo not given)
IC50 [2]: > 47.1 µM (inactive) | EC50 [3]: > 53 µM (inactive)

SMILES: OC(COc1ccc(Cl)c2ccccc12)CN1CCN(c2ccccn2)CC1 (stereo not given)
CC50 [4]: 18.3 µM (active)

SMILES: Cc1cc(Br)cc2c1N(C)C(=O)C2(c1ccc(O)cc1)c1ccc(O)cc1
CC50 [4]: 13.8 µM (active)

SMILES: Cc1cc([N+](=O)[O-])ccc1NCc1ccccc1[N+](=O)[O-]
IC50 [2]: > 47.1 µM (inactive) | EC50 [3]: > 53 µM (inactive)

SMILES: O=C(CCC(=O)c1ccc(Br)cc1)Nc1cccnc1
EC50 [1]: > 195 µM (not active)

SMILES: CN(C)c1ncc2nc(-c3cc(F)cc(F)c3)c(=O)n(-c3ccccc3)c2n1
AC50 (Cytochrome P450 1A2): 0.316 µM (inconclusive)

SMILES: COc1ccc(C(=O)c2c[nH]cc2-c2ccccc2)cc1
EC50 [1]: > 195 µM (not active)

SMILES: CCCC[C@@H]1C[C@H]1C(NC(=O)c1ccccc1)c1ccc(-c2ccccc2)cc1 (stereo not given in full)
AC50 (Cytochrome P450 1A2): 0.501 µM (inconclusive) | AC50 (Cytochrome P450 3A4): 7.94 µM (inconclusive) | AC50 (Cytochrome P450 2C9): 2 µM (inconclusive)

SMILES: COc1ccc(N2CCN(S(=O)(=O)c3cc4c(cc3C)N(C(C)=O)CCO4)CC2)cc1
EC50 [1]: > 195 µM (not active)

SMILES: CC(=O)Nc1ccc(OCC(=O)N2CCC(Cc3ccccc3)CC2)cc1
CC50 [4]: 21.6 µM (active)

SMILES: O=C(Nc1ccc(F)cc1F)c1cccnc1Oc1cccc(C(F)(F)F)c1
AC50 (Cytochrome P450 1A2): 0.794 µM (inconclusive)

SMILES: CCCc1cc2c(n1Cc1cccc(Cl)c1)C(C)C1CN(C(=O)c3ccccc3)C(C)(C(=O)OC)C21 (stereo not given)
AC50 (Cytochrome P450 1A2): 31.6 µM (inconclusive)

SMILES: CN(C(=O)CCNC(=O)Cn1cnc2ccccc2c1=O)c1ccccc1F
EC50 [1]: > 195 µM (not active)

Other lines, results leading:

EC50 [1]: > 195 µM (not active)
SMILES: Cc1nc(NC(C)c2ccccc2)sc1C(=O)Nc1ccccc1 (stereo not given)

EC50 [1]: > 195 µM (not active)
SMILES: Cc1ccc(CSCC(=O)N(C)CC(=O)Nc2ccc(C)cc2)cc1

AC50 (Cytochrome P450 2C19): 2.51 µM (inconclusive) | AC50 (Cytochrome P450 1A2): 0.794 µM (inconclusive)
SMILES: CCC/C=C(\CCC)C(NS(=O)(=O)c1cccc2cccnc12)c1ccc(-c2ccccc2)cc1 (stereo not given)

EC50 [1]: > 195 µM (not active)
SMILES: Cc1nc2ccc(S(=O)(=O)NC(C(=O)NCc3cccs3)C(C)C)cc2s1 (stereo not given)

IC50 [2]: > 47.1 µM (inactive) | EC50 [3]: > 53 µM (inactive)
SMILES: CCC(c1nnc(SCC(=O)Nc2c(F)cccc2F)n1Cc1ccccc1)N(C)C (stereo not given)

AC50 (Cytochrome P450 1A2): 0.0708 µM (inconclusive)
SMILES: O=c1c2ccccc2c(-c2ccccc2)nn1Cc1ccc(Cl)cc1

IC50 [2]: > 47.1 µM (inactive) | EC50 [3]: > 53 µM (inactive)
SMILES: COc1cc(C=O)ccc1Oc1cnccn1

AC50 (Paired box protein Pax-8): 65.4 µM (active)
SMILES: CCCCNC(=O)C(Sc1ccccc1)c1ccccc1 (stereo not given)

IC50 [2]: 11 µM (active) | EC50 [3]: > 53 µM (inactive)
SMILES: COc1ccc(CNc2cc([N+](=O)[O-])ccc2OC)cc1
